Laboratory results published in patent US20250295686A1, “COMBINATION DECITABINE AND MPS1 INHIBITOR THERAPY TO PRIME CANCER IMMUNOGENICITY” (Dana-Farber Cancer Institute, Inc., priority 2021, published 2025).
Entries after “also recorded” stand apart in the source; their conditions may differ.

Experiments:
H1944 cells [1] = experiment: Cell viability assay to determine an IC50 (CellTiter-Glo); type: cell-based, human
Text: Due to their particular hypersensitivity, H1944 cells were utilized as a model system in which to conduct an unbiased screen of cytotoxic chemotherapies or targeted DNA-damaging agents for their ability to upregulate endogenous 2′3′-cGAMP production following pulse treatment, including cGAS-deficient H2122 cells as a counter-screen (FIGS. 3A and 3B). […] Additionally, hydroxyurea or nocodazole were included as controls to induce S-phase or M-phase cell cycle arrest. The IC50 was identified for each compound for cell viability in H1944 cells, and this concentration was utilized for the screen (FIG. 4A and Table 1). It was shown that each agent induced cellular cytotoxicity and/or DNA-damage response at this concentration, as measured by the induction of propidium iodide positive cells, cleaved PARP fragments, or histone TH2A.X expression (FIGS. 4B and 4C).
3000 cells were plated onto 96-well plates, and then cultured for 72 hours in the presence of each DNA-damaging agent at the indicated concentration. Values of CellTiter-Glo Luminescent Cell Viability assay (Promega) […] were normalized to vehicle treated cells. Plates were read on a Tecan Infinite M200 Pro plate reader and analysis was performed using Prism7 (GraphPad Software). All conditions were tested in triplicate.

393P-KL cells = experiment: Efficacy studies in 393P-KL syngeneic model (129S2/SvPasCrl mice); type: in vivo, mouse; conditions: after 12 weeks; decitabine day 1-7 and/or BAY-1217389 day 8, 9, 21, 22; durable response = tumor volume less than 250 mm^3 for at least 50 days after treatment
Method: To test this, an efficacy study was performed utilizing the same short-term pulse regimen of the sequential therapy with DAC/MPS1i in 393P-KL syngeneic model. […] Additionally, to further assess the role of an intact immune system, immune-deficient NSG mice were used.

STING pathway [2] = experiment: Immunoblot of STING downstream signaling in H1944 cells treated with MPS1 inhibitors; type: cell-based, human; conditions: 100 nM BAY-1217389, 250 nM CC-671, compared with 200 nM CFI-402257
Method: It was also shown that MPS1 inhibitor-induced cellular cytotoxicity was dependent upon intact STING and STAT1 (FIG. 3K).
On the other hand, reconstitution of STING in STING^absent KL cells such as A549 and H23 cells also sensitized them to MPS1 inhibition, leading to CXCL10 secretion and STAT1 activation (FIGS. 3J, 4H). It was determined that MPS1 inhibitor-induced cellular cytotoxicity and growth arrest in KL cells required activation of STING signaling following 48-hour pulse treatment, and to a lesser degree during continuous 96 hour SAC inhibition, which is also capable of arresting KP cells (FIGS. 3K, 4I-4K). […] Phosphorylation of TBK1 and IFN-β secretion, which are upstream of IFNAR1, were also attenuated by IFNAR1 depletion (FIGS. 3L, 4M, and 4N).
(§1) Cells were lysed in RIPA buffer containing 1× protease inhibitors (Roche, Cat #11-836-145-001) and phosphatase inhibitors (50 mmol/L NaF and 100 mmol/L Na3VO4). […] Imaging of blots and quantitation of bands was performed using the LICOR Odyssey system, or LAS-3000 (Fujifilm).

H1944 cells [3] = experiment: Cell cycle analysis through propidium iodide staining; type: cell-based, human; conditions: 48 hours, 200 nM CFI-402257, 2.5 μM cisplatin, 5 μM etoposide, 500 nM pemetrexed, 50 μM hydroxyurea
Text: For cell cycle analysis, cells were stained by BD CycleTEST™ Plus DNA according to the manufacturer's instructions, and then analyzed by FACSCanto 11 (BD Biosciences). For cell viability analysis, cells were stained by propidium iodide (PI) according to the manufacturer's instructions of Annexin V using Alexa Fluor 488 Annexin V dead cell apoptosis kit (Thermo Fisher Scientific, Cat. #V13245) and then analyzed by FACSCanto 11 (BD Biosciences).

STING pathway [4] = experiment: Pre-treatment with epigenetic inhibitor followed by pulse MPS1i in STING^Low KL cells (ELISA, immunoblot, immunofluorescence); type: cell-based, human
Text: However, since KL cells epigenetically silence STING, unleashing STING expression might robustly sensitize them to MPS1 inhibition, including cell lines with baseline STING absence. Pre-treatment with the EZH2 inhibitor GSK126, which is able to de-repress STING in STING^Low KL cells lines, H1944, and H1355 cells, was explored (Kitajima et al., 2019) (FIGS. 8B and 8C).
(§2) Human IFN-β (Thermo Fisher Scientific, Cat. #414101), human CXCL10 (R&D systems, Cat. #DIP100), mouse CXCL10 (R&D systems, Cat. #DY466), and 2′3′-cGAMP (Cayman Chemical, Cat. #501700) ELISAs were performed according to the manufacturer's instructions. Conditioned media from each cell lines was collected after 24 hour culture. Values represent the average of four replicates from at least two independent experiments (biological replicates).
as §1
After being grown on chamber slides (CellTreat, Cat #229168) and subjected to various treatment conditions, cells were fixed and permeabilized according to standard protocols. […] Slides were imaged with the Nikon Eclipse 80i microscope, and colocalization was determined using CoLoc2 in ImageJ.

KL NSCLC cell lines = experiment: CXCL10 ELISA after exogenous CDN exposure, KL NSCLC cell lines; type: cell-based, human; conditions: 24 hours
Text: Treatment with 2′3′-cGAMP or ADU-S100 was utilized to examine the sensitivity of KP or KL NSCLC cell lines to exogenous CDN exposure. […] KL cell response to extracellular CDNs was still modest as compared with endothelial cells (HUVEC) or monocytic THP-1 cells, which also have different membrane permeabilities (FIG. 2C) (Cordova et al., 2021; Luteijn et al., 2019; Ritchie et al., 2019).
as §2

[5] = Homo sapiens, NCI-H1944, 72 hours with drug

| Compound | IC50 (H1944 cells [1]; [5]) [nM] | also measured |
| --- | --- | --- |
| CCN(CCCOc1ccc2c(Nc3cc(CC(=O)Nc4cccc(F)c4)n[nH]3)ncnc2c1)CCOP(=O)(O)O [barasertib] | 160 | – |
| CN(Cc1cnc2nc(N)nc(N)c2n1)c1ccc(C(=O)N[C@@H](CCC(=O)O)C(=O)O)cc1 [methotrexate] | 160 | – |
| O=C(c1cc(Cc2n[nH]c(=O)c3ccccc23)ccc1F)N1CCN(C(=O)C2CC2)CC1 [olaparib] | 27700 | – |
| C[C@@H]1COCCN1c1cc(C2([S@](C)(=N)=O)CC2)nc(-c2cc[nH]c3nccc2-3)n1 [ceralasertib] | 1080 | – |
| COC(=O)Nc1nc2ccc(C(=O)c3cccs3)cc2[nH]1 [nocodazole] | 60.1 | – |
| O=C(O)[C@]1(Cc2cccc(Nc3nccs3)n2)CC[C@@H](Oc2cccc(Cl)c2F)CC1 [MK5108] | 3920 | – |
| COc1ccc(Oc2cc(NCCC(F)(F)F)c3ncc(-c4ccc(C(=O)NC5CC5)c(C)c4)n3n2)c(F)c1F [BAY-1217389] | – | durable, long-term response (393P-KL cells): 0 mice; STING downstream signaling, cGAS-dependent (immunoblot) (STING pathway [2]): upregulated to the same extent; also recorded: induced similar cGAS dependent activation of STING signaling |
| Nc1ncn([C@H]2C[C@H](O)[C@@H](CO)O2)c(=O)n1 [decitabine] | – | durable, long-term response (393P-KL cells): 2/8 |
| N.N.[Cl][Pt][Cl] [cisplatin] | – | cell cycle status (H1944 cells [3]): strongly induced G2/M-arrest; IC50 (H1944 cells [1]; 72 hours with drug): 3270 nM |
| CC[C@H](C)n1cc(C)c2c(C(=O)NCc3c(C)cc(C)[nH]c3=O)cc(-c3ccc(N4CCNCC4)nc3)cc21 [GSK126] | – | STING levels (STING pathway [4]; H1944 cells, 5 μM GSK126 combination with 200 nM CFI-402257): upregulated STING levels; CXCL10 and IFN-β secretion induced by pulse MPS1i treatment after pre-treatment (STING pathway [4]; H1944 or H1355 cells, 5 μM GSK126 pre-treatment, then 200 nM CFI-402257 or 100 nM BAY-1217389): markedly enhanced |
| Cc1cc(-c2cnn3c(NC[C@H]4C[C@@](C)(O)C4)cc(Oc4cccnc4)nc23)ccc1C(=O)NC1CC1 [CFI-402257] | 254 | – |
| CCC1=C[C@@H]2CN(C1)Cc1c([nH]c3ccccc13)[C@@](C(=O)OC)(c1cc3c(cc1OC)N(C)[C@H]1[C@@](O)(C(=O)OC)[C@H](OC(C)=O)[C@]4(CC)C=CCN5CC[C@]31[C@@H]54)C2 [vinorelbine] | 22.2 | – |
| C=CCn1c(=O)c2cnc(Nc3ccc(N4CCN(C)CC4)cc3)nc2n1-c1cccc(C(C)(C)O)n1 [MK1775] | 68.5 | – |
| NC(=O)NO [hydroxyurea] | 34600 | cell cycle status (H1944 cells [3]): induced S-phase arrest |
| Nc1nc2[nH]cc(CCc3ccc(C(=O)N[C@@H](CCC(=O)O)C(=O)O)cc3)c2c(=O)[nH]1 [pemetrexed] | 612 | cell cycle status (H1944 cells [3]): induced S-phase arrest |
| CC[C@@H]1C(=O)N(C)c2cnc(Nc3ccc(C(=O)N[C@H]4CC[C@H](N5CCN(CC6CC6)CC5)CC4)cc3OC)nc2N1C(C)C [volasertib] | 8.46 | – |
| Nc1nc2c(ncn2[C@@H]2O[C@@H]3COP(=O)(O)O[C@H]4[C@@H](O)[C@H](n5cnc6c(N)ncnc65)O[C@@H]4COP(=O)(O)O[C@@H]2[C@@H]3O)c(=O)[nH]1 [2′3′-cGAMP, 2′3′-cyclic GMP-AMP] | – | CXCL10 secretion, STING^Absent KL cell lines (KL NSCLC cell lines; A549, H23, A427, up to 100 μM): failed to respond; CXCL10 secretion, STING^Low KL cells (KL NSCLC cell lines; H1944, H2122, H647, H1355, 3.125-100 μM): dose-dependent manner |
| CNC(=O)c1ccc(Nc2nc(OC3CCCC3)c3c(-c4ccc5nc(C)oc5c4)c[nH]c3n2)c(OC)c1 [CC-671] | – | STING downstream signaling, cGAS-dependent (immunoblot) (STING pathway [2]): upregulated to the same extent; also recorded: induced similar cGAS dependent activation of STING signaling |
| COc1cc([C@@H]2c3cc4c(cc3[C@@H](O[C@@H]3O[C@@H]5CO[C@@H](C)O[C@H]5[C@H](O)[C@H]3O)[C@H]3COC(=O)[C@H]23)OCO4)cc(OC)c1O [etoposide] | 4720 | – |
| COc1cccc(OCCCN)c1-c1cc(Nc2cnc(C#N)cn2)n[nH]1 [prexasertib] | 11.3 | – |
